US20080045609A1, “METHODS AND THERAPEUTICS TO FACILITATE LIVER REPAIR” (priority 2006, published 2008)

How the values were obtained:
[1] = system: progressive pulmonary fibrosis; details: patients with idiopathic pulmonary fibrosis, scleroderma or sarcoidosis resistant to three months of high-dose glucocorticoids; cited from earlier work
[2] = system: rat model of hypertension; details: cited from earlier work
[3] = system: NASH; experiment: clinical trial in patients with moderately severe NASH; type: in vivo, human; details: subcutaneous delivery, monotherapy
Experimental: The dosage and delivery mechanism for relaxin H2 is subcutaneous delivery of the molecule based on the earlier reports for the scleroderma trial. […] The dosage of relaxin H2 in the present trial is the most efficacious level that was used in the earlier reported scleroderma trial, a subcutaneous relaxin infusion rate of 25 μg/kg/day, with the mode of delivery via continuous subcutaneous delivery (e.g., through implantation of an osmotic pump). The simultaneous dosage of follistatin will be 50 μg/kg/day through subcutaneous delivery.
A formulation comprised of rH2 relaxin and recombinant human follistatin 315 is used to improve prognosis and decrease on-going damage caused from on-going hepatic damage in patients diagnosed with moderately severe NASH. The measured end points are indicative of a decrease of reduction of area of damage in the liver and increased liver enzyme function. […]
rH2 relaxin and follistatin administration are studied in a small patient population of NASH and an improvement in liver enzyme levels and liver function is measured as a primary end point. A decrease in on-going damage as determined by imaging techniques is also measured. […] In addition, elements such as diet and exercise are carefully monitored in the trial populations as these may impact on the improvement of the underlying metabolic disorder and potentially skew the results.

[4] = system: hepatic stellate cells (HSCs); details: rat CCl4 model of liver damage; cited from earlier work
[5] = human, in vivo; cited from earlier work
[6] = system: HSC; details: cited from earlier work
[7] = system: tumor cell; details: in vitro or in vivo studies; cited from earlier work
[8] = system: liver; details: cited from earlier work
[9] = system: CCl4-exposed rats; details: cited from earlier work
[10] = system: lung fibroblasts; details: in vitro; cited from earlier work
[11] = system: gene for TGF-β1; details: bleomycin-induced model of lung fibrosis, exogenous interferon-γ; cited from earlier work

## interferon γ-1b
[1]
  clinical efficacy in progressive pulmonary fibrosis: effective

## relaxin
[2]
  fibrosis associated with organ damage: reversing cardiac and renal fibrosis
[3]
  improvement versus vehicle (liver enzyme levels, liver function): significant improvement over those treated with vehicle
[4]
  collagen deposition by hepatic stellate cells: inhibit collagen deposition by hepatic stellate cells
[5]
  adverse events: few adverse events

## follistatin
[6]
  TGF-β-induced secretion of collagen: inhibit TGF-β-induced secretion of collagen from HSC
[3]
  improvement versus vehicle (liver enzyme levels, liver function): significant improvement over those treated with vehicle
[7]
  tumor cell growth: did not accelerate tumor cell growth
[8]; after hepatic resection
  liver weight: significantly increases liver weight
[8]; following partial hepatectomy
  cell replication and liver size: actively promote cell replication and increase liver size
[9]; CCl4-exposed rats treated with the peptide
  reduction in fibrosis: 32%
[9]; CCl4-exposed rats, during treatment, effect maximal at week 4
  decrease of hepatocyte apoptosis: 87%

## interferon-γ
[10]
  proliferation of lung fibroblasts: inhibits the proliferation of lung fibroblasts in a dose-dependent manner
  synthesis of protein in fibroblasts: reduces the synthesis of protein in fibroblasts
[11]
  transcription of the gene for TGF-β1: down-regulated
